Source: patent US7910568B2, “Derivatives of 4- or 5-aminosalicylic acid” (Antibe Therapeutics Inc., priority 2005, dated 2011)

Tests used:
[1] = system: myeloperoxidase (MPO) activity; assay: TNBS-induced colitis in mice, colonic myeloperoxidase (MPO) activity as marker of granulocyte infiltration; assay type: in vivo
Method: A standard experimental animal model of colitis induced by intracolonic administration of 2,4,6-trinitrobenzene sulfonic acid (TNBS) to mice is used in the following example. A detailed description of this model has been published (Santucci et al. (2003) Gastroenterology 124:1381-94) and is incorporated herein by reference. Briefly, 6-8 week old Balb/c mice were given TNBS intracolonically at a dose of 1.5 mg in 0.1 mL of 30% ethanol. The mice were randomized to the various treatment groups (n=6 per group). Beginning one hour later and continuing every 12 h for 5 days, the mice were treated orally with vehicle (1% carboxymethylcellulose (CMC)), 5-ASA (mesalamine) (25, 50 or 75 mg/kg) or with equimolar doses of 2-hydroxy-5-amino-benzoic acid 4-(thioxo-5H-[1,2]dithiol-3-yl)-phenyl ester hydrochloride (Compound XXXV) (130 mg/kg), or with […] (100 mg/kg), 50% (66 mg/kg) and 25% (33 mg/kg) of that dose. The mice were evaluated (blindly) on the final day of the study for the presence of diarrhea and fecal occult blood, and their body weights were measured. […] After sacrifice, a sample of the colon was excised for measurement of myeloperoxidase (MPO) activity, as a marker of granulocyte infiltration. All results were compared to those obtained with healthy mice as well.

iNOS mRNA = assay: TNBS-induced colitis in mice, colonic iNOS mRNA by RT-PCR; assay type: in vivo; settings: dose equimolar to 50 mg/kg mesalamine; FIG. 14
Method: The same model was used as described above. In this example, the effects of mesalamine (50 mg/kg) were compared to those of equimolar doses of Compound XXXV. In addition to measuring the severity of colitis by measuring disease activity score and MPO activity, tissues were processed for measurement of a number of genes for inflammatory cytokines and other mediators.
In particular, mRNA expression in mice of tumour necrosis factor-alpha (TNF-α), interferon gamma (IFN-γ), colonic interleukin (IL)-1, IL-2, IL-10, IL-12 p40, RANTES, cyclooxygenase (COX)-1, COX-2, constitutive endothelial nitric oxide synthase (eNOS), and inducible NOS (iNOS) was measured as described in Wallace et al. (1999) Gastroenterology 117: 557-566, incorporated herein by reference.
Briefly, reverse transcription-polymerase chain reaction (RT-PCR) was used to detect and quantify mRNA of the particular cytokine/chemokine/enzyme. Glyceraldehyde-3-phosphate dehydrogenase (GAPDH) was used as the “housekeeping gene” for mRNA expression (i.e., as an internal control). For each sample, the ratio of the amplification of the target gene to the amplification of GAPDH (expression of each is measured by performing densitometry on gels) was obtained. […]

[2] = system: visceral pain perception in response to colorectal distension; assay: Rat model of visceral pain perception, colorectal distension, abdominal withdrawal reflex score; assay type: in vivo
Method: A rat model of visceral pain perception, a pre-clinical model of irritable bowel syndrome, was used in the following example. Rats (male, Wistar, 200-250 g, obtained from Charles River, Monza, Italy), were housed in plastic cages and maintained under controlled conditions with 12-hours light/dark cycle with lights on at 7.00 AM. Tap water and standard laboratory chow were freely available. Before experiments, rats were individually trained by spending 2-3 hours per day in a plexiglass cage for 2-3 days. It allowed them to adjust to a movement-restriction environment. Food was withheld for 12 hours before colorectal distension (CRD) recording were performed. Experiments were performed in awake rats and were conducted in a blind manner in that the observer was not aware of the identity of drug administered to each animal.
In the testing day, rats were sedated with ether inhalation and a 2 cm long latex balloon was inserted intrarectally 2 cm from the anal verge and fixed at the base of the tail. The balloon was connected via a double-barreled cannula to a pressure transducer to continuously monitoring the rectal pressure by a computer (PowerLab PC, A.D. Instruments, Milford, Mass., USA) and to a syringe for inflation/deflation of the balloon. The rats were then housed in a small cage (20×8×8 cm) on an elevated Plexiglas™ platform and allowed to wake up and adapt for 1 hour. After recovery from sedation, animals underwent the CRD procedure and behavioral responses were tested. The night before the experiments, the balloons were inflated and left overnight so the latex stretched and the balloons became compliant.
CRD of 20 seconds, performed every 5 minutes, was applied in increment of 0.4 ml starting from 0.4 ml up to 1.6 ml water. To achieve an accurate measurement of the colonic parameters and perception, the distensions were repeated twice for each intensity and data for each animal were averaged for analysis. Each animal underwent a double set of CRD. Twenty minutes after the first sequence of CRD (0.4 mL-1.6 ml water), drugs were administered intraperitoneally (i.p.) and a second set of CRD was performed. Behavioral responses during the first and the second set of CRD were assessed and compared.
Behavioral response to CRD was assessed by measuring the abdominal withdrawal reflex (AWR) using a semiquantitative score (1).
The effects of mesalamine and Compound XXXV on colonic compliance and sensitivity were determined using a total of 8 fasting rats. To investigate whether the administration of mesalamine and Compound XXXV could revert pain induced by CRD, after the first sequence of CRD, […], after which a second set of CRD was repeated.
All data are presented as the mean±SEM, with sample sizes of 4 rats/group; statistical comparison of paired data was performed by the Wilcoxon signed rank test. An associated probability (p value) of less that 5% was considered significant.

[3] = Viability of HT-29 human colon cancer cells, MTT assay; assay type: cell-based; settings: HT-29 colon cancer cells, 72 h exposure, HT-29, MTT, read-out: Cell viability rate as a percent of the vehicle (DMSO)-treated cells
Method: HT-29 cells were grown in culture using standard methods. The cells were exposed to vehicle (DMSO), mesalamine or Compound XXXV. Concentrations ranging from 0.1 to 10 μM were tested, with each concentration tested in 6 wells. At the end of 72 h of exposure to the test drugs, cell viability was measured using the MTT [3-(4,5-dimethylthiaxol-2-yl)-2,5-diphenyltetrazolium bromide] assay (Carmichael et al. (1978) Cancer Res. 47, 936-942), incorporated herein by reference.

[4] = H2S generation in buffer, liver homogenate and liver homogenate with PAG, sulfide sensitive electrode; assay type: in vitro ADME, rat; settings: 1 mM compound, FIG. 21

Nc1ccc(O)c(C(=O)Oc2ccc(-c3cc(=S)ss3)cc2)c1 [Compound XXXV, 5-Amino-2-hydroxy-benzoic acid 4-(5-thioxo-5H-[1,2]dithiol-3-yl)-phenyl ester]
MPO activity (granulocyte infiltration) ([1]; Compound XXXV 130 mg/kg, FIG. 4): significantly reduced inflammation | MPO activity ([1]; dose-ranging, oral every 12 h for 5 days, highest doses tested, FIG. 2): significantly reduced (almost in half) | iNOS mRNA expression (iNOS mRNA): suppressed | Perception score (visceral pain in response to colorectal distension) ([2]; 100 mg/kg i.p., second set of CRD 0.4-1.6 ml, FIG. 15): more effective than mesalamine (and vehicle) in reducing visceral pain | Pain perception score after glibenclamide pretreatment ([2]; 0.8 mL colorectal distention, 100 mg/kg, glibenclamide 10 mg/kg i.p. 30 min before, FIG. 17): reversed by pretreatment with glibenclamide | Pain perception score ([2]; 0.8 mL colorectal distention, 100 mg/kg, FIG. 17): significantly reduced the pain perception | Pain perception score ([2]; equimolar doses: mesalamine 50 mg/kg, Compound XXXV 130 mg/kg, ADT-OH 80 mg/kg, Compound XXVII 100 mg/kg, 4-HTB 50 mg/kg, vs vehicle): significantly reduced pain perception | viability at 72 h, 0.1 µM ([3]; 0.1 μM): 88.4 ± 2.9% | viability at 72 h, 1 µM ([3]; 1 μM): 87.3 ± 2.3% | viability at 72 h, 10 µM ([3]; 10 μM): 79.6 ± 1.9% | Effect of PAG (DL-propargylglycine) on H2S generation in liver homogenate ([4]; PAG 2 mM, inhibitor of cystathionine γ-lyase): lack of effect | H2S release in buffer ([4]; potassium phosphate buffer pH 7.4, 37° C.): release H2S spontaneously (in buffer) | H2S release in liver homogenate compared with buffer ([4]; rat liver homogenate 10% (wt/vol)): greater when in the presence of tissue
